Experimental data reported in patent US7732604B2, “Triazolopyrazine derivatives” (Pfizer Inc., priority 2006, dated 2010).
Where two headings read alike, the source gives them in different places.

Biological target: T1, HGFR (Homo sapiens, UniProt P08581)
T1 construct: purchased Upstate 14-526
Assay: HGFR continuous-coupled spectrophotometric assay (tyrosine kinase activity on Met-2 substrate peptide)
Type: biochemical
Details: HGFR 50 nM, Met-2 peptide 0.5 mM, ATP 300 μM, 37° C., absorbance 340 nm

T1 sequence (P08581 974-1390 limits assumed): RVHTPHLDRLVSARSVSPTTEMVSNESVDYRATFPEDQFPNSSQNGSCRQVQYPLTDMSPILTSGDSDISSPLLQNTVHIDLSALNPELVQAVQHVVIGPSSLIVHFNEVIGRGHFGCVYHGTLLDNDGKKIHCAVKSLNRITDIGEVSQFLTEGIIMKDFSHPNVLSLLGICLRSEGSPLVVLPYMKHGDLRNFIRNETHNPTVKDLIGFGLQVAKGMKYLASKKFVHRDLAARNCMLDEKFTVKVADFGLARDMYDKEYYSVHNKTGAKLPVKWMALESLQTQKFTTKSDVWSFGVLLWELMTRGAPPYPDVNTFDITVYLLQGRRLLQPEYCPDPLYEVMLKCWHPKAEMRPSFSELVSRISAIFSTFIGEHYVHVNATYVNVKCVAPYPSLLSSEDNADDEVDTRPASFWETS

Structure (SMILES) | Ki (read-out: Ki) | Ki (Ki)
CNc1cnc2nnn(Cc3ccc4ncccc4c3)c2n1 [Example 57, Methyl-(3-quinolin-6-ylmethyl-3H-[1,2,3]triazolo[4,5-b]pyrazin-5-yl)-amine] | 11 nM | 
CC(O)Cn1cc(-c2cnc3nnn(Cc4ccc5ncccc5c4)c3n2)cn1 (stereo not shown) [Example 59, 1-[4-(3-Quinolin-6-ylmethyl-3H-[1,2,3]triazolo[4,5-b]pyrazin-5-yl)-pyrazol-1-yl]-propan-2-ol] | 11 nM | 
c1cnc2ccc(Cn3nnc4ncc(-c5cnn([C@H]6CCOC6)c5)nc43)cc2c1 [Example 62, 6-{6-[(S)-1-(Tetrahydro-furan-3-yl)-1H-pyrazol-4-yl]-[1,2,3]triazolo[4,5-b]pyrazin-1-ylmethyl}-quinoline] | 13 nM | 
COC(=O)C(C)(C)n1cc(-c2cnc3nnn(Cc4ccc5ncccc5c4)c3n2)cn1 [Example 65, 2-Methyl-2-[4-(3-quinolin-6-ylmethyl-3H-[1,2,3]triazolo[4,5-b]pyrazin-5-yl)-pyrazol-1-yl]-propionic acid methyl ester] | 47 nM | 
COC(=O)Cn1cc(-c2cnc3nnn(Cc4ccc5ncccc5c4)c3n2)cn1 [Example 66, [4-(3-Quinolin-6-ylmethyl-3H-[1,2,3]triazolo[4,5-b]pyrazin-5-yl)-pyrazol-1-yl]-acetic acid methyl ester] | 18 nM | 
CC(C)(C(N)=O)n1cc(-c2cnc3nnn(Cc4ccc5ncccc5c4)c3n2)cn1 [Example 67, 2-[4-(3-Quinolin-6-ylmethyl-3H-[1,2,3]triazolo[4,5-b]pyrazin-5-yl)-pyrazol-1-yl]-isobutyramide] | 41 nM | 
CC(C)(C(=O)O)n1cc(-c2cnc3nnn(Cc4ccc5ncccc5c4)c3n2)cn1 [Example 68, 2-Methyl-2-[4-(3-quinolin-6-ylmethyl-3H-[1,2,3]triazolo[4,5-b]pyrazin-5-yl)-pyrazol-1-yl]-propionic acid] | 27 nM | 
CCN(CCO)c1cnc2nnn(Cc3ccc4ncccc4c3)c2n1 [Example 74, 2-{ethyl[1-(quino-lin-6-yl-methyl)-1H-[1,2,3]tri-azolo[4,5-b]py-razin-6-yl]ami-no}ethanol] | 33 nM | 
OCCN(CCO)c1cnc2nnn(Cc3ccc4ncccc4c3)c2n1 [Example 77, 2,2′-{[1-(quino-lin-6-yl-methyl)-1H-[1,2,3]tri-azolo[4,5-b]py-razin-6-yl]imi-no}diethanol] |  | 19 nM
CN(CCO)c1cnc2nnn(Cc3ccc4ncccc4c3)c2n1 [Example 78, 2-{methyl[1-(quino-lin-6-yl-methyl)-1H-[1,2,3]tri-azolo[4,5-b]py-razin-6-yl]ami-no}ethanol] | 37 nM | 
O=C1CN(c2cnc3nnn(Cc4ccc5ncccc5c4)c3n2)CCN1 [Example 83, 4-[1-(quinolin-6-yl-methyl)-1H-[1,2,3]tri-azolo[4,5-b]py-razin-6-yl]pipe-razin-2-one] | 34 nM | 
CN(CCS(C)(=O)=O)c1cnc2nnn(Cc3ccc4ncccc4c3)c2n1 [Example 85, N-methyl-N-[2-(meth-ylsulfonyl)ethyl]-1-(quino-lin-6-yl-methyl)-1H-[1,2,3]tri-azolo[4,5-b]pyra-zin-6-amine] | 12 nM | 
N#CC1CCN(c2cnc3nnn(Cc4ccc5ncccc5c4)c3n2)CC1 [Example 86, 1-[1-(quinolin-6-yl-methyl)-1H-[1,2,3]tri-azolo[4,5-b]py-razin-6-yl]pipe-ridine-4-carbonitrile] | 21 nM | 

Further lines, with some results ahead:

Ki (read-out: Ki) | Structure (SMILES) | Ki (Ki)
10 nM | c1cnc2ccc(Cn3nnc4ncc(-c5cnn([C@@H]6CCOC6)c5)nc43)cc2c1 [Example 61, 6-{6-[(R)-1-(Tetrahydro-furan-3-yl)-1H-pyrazol-4-yl]-[1,2,3]triazolo[4,5-b]pyrazin-1-ylmethyl}-quinoline] | 
22 nM | Cc1n[nH]c(C)c1-c1cnc2nnn(Cc3ccc4ncccc4c3)c2n1 [Example 63, 6-[6-(3,5-Dimethyl-1H-pyrazol-4-yl)-[1,2,3]triazolo[4,5-b]pyrazin-1-ylmethyl]-quinoline] | 
4 nM | Cn1nc(C(F)(F)F)cc1-c1cnc2nnn(Cc3ccc4ncccc4c3)c2n1 [Example 64, 6-[6-(2-Methyl-5-trifluoromethyl-2H-pyrazol-3-yl)-[1,2,3]triazolo[4,5-b]pyrazin-1-ylmethyl]-quinoline] | 
3 nM | c1cnc2ccc(Cn3nnc4ncc(-c5ccn[nH]5)nc43)cc2c1 [Example 69, 6-[6-(2H-Pyrazol-3-yl)-[1,2,3]triazolo[4,5-b]pyrazin-1-ylmethyl]-quinoline] | 
23 nM | COCCNc1cnc2nnn(Cc3ccc4ncccc4c3)c2n1 [Example 71, N-(2-meth-oxyethyl)-1-(quino-lin-6-yl-methyl)-1H-[1,2,3]tri-azolo[4,5-b]py-rain-6-amine] | 
37 nM | CC(C)N(CCO)c1cnc2nnn(Cc3ccc4ncccc4c3)c2n1 [Example 73, 2-{isopropyl[1-(quino-lin-6-yl-methyl)-1H-[1,2,3]tri-azolo[4,5-b]py-razyl-6-yl]ami-no}ethanol] | 
23 nM | CC1C(=O)NCCN1c1cnc2nnn(Cc3ccc4ncccc4c3)c2n1 (stereo not shown) [Example 75, 3-methyl-4-[1-(quino-lin-6-yl-methyl)-1H-[1,2,3]tri-azolo[4,5-b]py-razin-6-yl]pipe-razin-2-one] | 
65 nM | OC[C@@H]1CCCN1c1cnc2nnn(Cc3ccc4ncccc4c3)c2n1 [Example 76, {(2S)-1-[1-(quino-lin-6-yl-methyl)-1H-[1,2,3]tri-azolo[4,5-b]pyra-zin-6-yl]pyr-rolidin-2-yl}methanol] | 
11 nM | O=C1CCN(c2cnc3nnn(Cc4ccc5ncccc5c4)c3n2)CCN1 [Example 79, 1-[1-(quinolin-6-yl-methyl)-1H-[1,2,3]tri-azolo[4,5-b]py-razin-6-yl]-14-di-azepan-5-one] | 
21 nM | OCC1CCN(c2cnc3nnn(Cc4ccc5ncccc5c4)c3n2)CC1 [Example 80, {1-[1-(quinolin-6-yl-methyl)-1H-[1,2,3]tri-azolo[4,5-b]py-razin-6-yl]pipe-ridin-4-yl}methanol] | 
43 nM | CS(=O)(=O)C1CCN(c2cnc3nnn(Cc4ccc5ncccc5c4)c3n2)C1 (stereo not shown) [Example 81, 6-({6-[3-(meth-ylsulfonyl)pyr-rolidin-1-yl]-1H-[1,2,3]tri-azolo[4,5-b]pyra-zin-1-yl}meth-yl)quinoline] | 
15 nM | CCN1CCN(c2cnc3nnn(Cc4ccc5ncccc5c4)c3n2)C(C)C1=O (stereo not shown) [Example 82, 1-ethyl-3-meth-yl-4-[1-(quino-lin-6-yl-methyl)-1H-[1,2,3]tri-azolo[4,5-b]pyra-zin-6-yl]pipe-razin-2-one] | 
26 nM | CCCN(CCO)c1cnc2nnn(Cc3ccc4ncccc4c3)c2n1 [Example 84, 2-{propyl[1-(quino-lin-6-yl-methyl)-1H-[1,2,3]tri-azolo[4,5-b]pyra-zin-6-yl]amino}ethanol] | 
54 nM | CCc1nc(CN(C)c2cnc3nnn(Cc4ccc5ncccc5c4)c3n2)no1 [Example 87, N-[(5-ethyl-124-oxa-diazol-3-yl)meth- ]-N-meth-yl-1-(quino-lin-6-yl-methyl)-1H-[1,2,3]tri-azolo[4,5-b]pyra-zin-6-amine] | 
50 nM | CC1C(=O)N(C)CCN1c1cnc2nnn(Cc3ccc4ncccc4c3)c2n1 (stereo not shown) [Example 88, 13-dimethyl-4-[1-(quino-lin-6-yl-methyl)-1H-[1,2,3]tri-azolo[4,5-b]pyra-zin-6-yl]pipe-razin-2-one] | 
